Details: 101.3 kPa, Liquid

CCCCn1cc[n+](C)c1.N#CN=C=[N-] [1-butyl-3-methylimidazolium dicyanamide]
Details | mass density [kg/m3] | viscosity [mPa·s]
278.15 K | 1075.8 | 82.07
283.15 K | 1072.6 | 62.54
288.15 K | 1069.4 | 48.93
293.15 K | 1066.2 | 39.14
298.15 K | 1063.1 | 31.8
303.15 K | 1059.9 | 26.29
308.15 K | 1056.8 | 21.79
313.15 K | 1053.7 | 18.5
318.15 K | 1050.6 | 15.88
323.15 K | 1047.5 | 13.78
328.15 K | 1044.4 | 12.06
333.15 K | 1041.3 | 10.65
338.15 K | 1038.2 | 9.475
343.15 K | 1035.1 | 8.485
348.15 K | 1032.1 | 7.643
353.15 K | 1029 | 6.923
358.15 K | 1025.8 | 6.304
363.15 K | 1022.7 | 5.77

— the NIST ThermoML archive (doi:10.1021/je900632q)
